Assay [1] has as its target T1, GT1a D168A NS3/4A protease (UniProt P27958, D1194A, species not given).
T1 construct: rows headed: Ki (nM) D168A; Ki D168A; other: D168A variant
It is filed as biochemical, Hepatitis C virus. Put shortly: (§1)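 Enzyme (GT1a wild type or D168A mutant, 2 nM) was preincubated with inhibitor dilutions for 1 h at room temperature in pH 7.5 Tris buffer with glycerol, DTT, LDAO and 4% DMSO.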

Assay [2] addresses GT1a D168A NS3/4A protease. The class given is biochemical, Hepatitis C virus. The conditions noted are these: fold change in Ki, D168A relative to WT. Put shortly:
as §1

The target of assay [3] is T2, wild-type GT1a NS3/4A protease (UniProt P27958).
T2 construct: Ki WT; other: wild-type HCV NS3/4A protease
It is filed as biochemical, Hepatitis C virus. Put shortly:
as §1

Assay [4] concerns wild-type HCV replicon in Huh7 cells. Nature of the assay: Cell-based drug susceptibility (replicon) assay, wild-type. The conditions noted are these: Hepatitis C virus, Huh-7, Table 9; read-out: Replicon EC50 (nM) WT. The method in brief:
(§2)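 Protease variants were introduced by site-directed mutagenesis into a genotype 1b Con1 luciferase replicon containing genotype 1a H77 NS3. Each replicon RNA was electroporated into Huh7 cells. Inhibitor was titrated upward. Luminescence was measured after 96 h.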
For orientation: A replicon is a self-replicating genome or part of one, used to study replication in cells.

The subject of assay [5] is HCV replicon A156T variant in Huh7 cells. Kind of assay: microbe, parasite or virus in culture. To be noted: for EC50: Hepatitis C virus, Huh-7, read-out: Replicon EC50 (nM) A156T, Table 9; for Replicon EC50 (Fold change) A156T: Table 9, relative to WT. The class given is cell-based, Hepatitis C virus. The method in brief:
as §2

Assay [6] deals with HCV replicon D168A variant in Huh7 cells. Kind of assay: microbe, parasite or virus in culture. It is filed as cell-based, Hepatitis C virus. To be noted: for EC50: Hepatitis C virus, Huh-7, read-out: Replicon EC50 (nM) D168A, Table 9; for Replicon EC50 (Fold change) D168A: Table 9, relative to WT. The method in brief: as §2
The test system of assay [7] is HCV replicon R155K variant in Huh7 cells. Nature of the assay: microbe, parasite or virus in culture. The class given is cell-based, Hepatitis C virus. To be noted: for EC50: Hepatitis C virus, Huh-7, read-out: Replicon EC50 (nM) R155K, Table 9; for Replicon EC50 (Fold change) R155K: Table 9, relative to WT. Put shortly: as §2
The test system of assay [8] is HCV replicon D168V variant in Huh7 cells. Kind of assay: microbe, parasite or virus in culture. The class given is cell-based, Hepatitis C virus. To be noted: for Replicon EC50 (Fold change) D168V: relative to WT. Put shortly: as §2
In assay [9] the target is GT1a R155K NS3/4A protease (UniProt P27958, R1181K, species not given). The class given is biochemical, Hepatitis C virus. On the procedure: (§3) For each assay, 2 nM of NS3/4A protease (GT1a, R155K and D168A) was pre-incubated at room temperature for 1 h with increasing concentration of inhibitors in assay buffer (50 mM Tris, 5% glycerol, 10 mM DTT, 0.6 mM LDAO, and 4% dimethyl sulfoxide, pH 7.5). Inhibition assays were performed in non-binding surface 96-well black half-area plates (Corning) in a reaction volume of 60 μL. […] Three independent data sets were collected for each inhibitor with each protease construct. […] Gibbs free energy of binding was calculated using the following equation: ΔG=RTlnKi

The target of assay [10] is GT1a R155K NS3/4A protease. The class given is biochemical, Hepatitis C virus. The conditions noted are these: fold change in Ki, R155K relative to WT. The procedure: as §3
[11] abbreviates: read-out: Ki (nM) D168A, Table 8, linear inhibitors.
Setting [12] is: read-out: Ki D168A, D168A variant.
Where [13] appears, read: read-out: Ki (nM) WT, Table 8, linear inhibitors.
[14] abbreviates: read-out: Ki WT, wild-type HCV NS3/4A protease.
Where [15] appears, read: Hepatitis C virus, Huh-7, read-out: Replicon EC50 (nM) D168V, Table 9.
Where [16] appears, read: read-out: Ki (nM) R155K, Table 8, linear inhibitors.
The mark [17] stands for this setting: read-out: Ki R155K, R155K variant.
Where [18] appears, read: read-out: Replicon EC50 (nM) D168V, Table 9.

Where two headings read alike, the source gives them in different places.

For the molecule `C=C[C@@H]1C[C@]1(NC(=O)[C@@H]1C[C@@H](Oc2nc3cc(OC)ccc3nc2CC)CN1C(=O)[C@@H](NC(=O)OC(C)(C)C)C(C)(C)C)C(=O)NS(=O)(=O)C1CC1` [Compound 3, tert-Butyl ((S)-1-((2S,4R)-2-(((1R,2S)-1-((cyclopropylsulfonyl)carbamoyl)-2-vinylcyclopropyl)carbamoyl)-4-((3-ethyl-7-methoxyquinoxalin-2-yl)oxy)pyrrolidin-1-yl)-3,3-dimethyl-1-oxobutan-2-yl)carbamate], the inhibitory constant (Ki) (in general, a dissociation constant, usually derived from enzyme kinetics or from competition with a known ligand) in assay [1] (setting [11]) worked out at 642 ± 101 nM; in assay [1] (setting [12]) it was 642 ± 101 nM; in assay [3] (setting [13]), 19 nM; in assay [3] (setting [14]), 19 ± 2.7 nM; in assay [9] (setting [16]), 17 ± 2.3 nM; in assay [9] (setting [17]) it was 17 ± 2.3 nM. Moreover, the “Ki D168A (fold change)” value in assay [2] is given as 34. Moreover, the EC50 (usually the concentration giving half of the maximal effect) in assay [4] is 24 nM; in [5], 73 nM; in assay [6], over 500 nM; in assay [7], 50 nM; in [8] (setting [15]) it was over 500 nM. In [5], the “Replicon EC50 (Fold change) A156T” value is listed as “(3.0) fold”. In [6], the “Replicon EC50 (Fold change) D168A” value is on record as “(>21) fold”. For the same molecule, the “Replicon EC50 (Fold change) R155K” value in assay [7] was “(2.1) fold”. The “Replicon EC50 (Fold change) D168V” value in assay [8] (Table 9) is reported as “(>21) fold”. For the same molecule, the “Ki R155K (fold change)” value in assay [10] was found to be 0.9.

Regarding `C=C[C@@H]1C[C@]1(NC(=O)[C@@H]1C[C@@H](Oc2nc3cc(OC)ccc3nc2Cl)CN1C(=O)[C@@H](NC(=O)OC(C)(C)C)C(C)(C)C)C(=O)NS(=O)(=O)C1CC1` [Compound 9d, tert-Butyl ((S)-1-((2S,4R)-4-((3-chloro-7-methoxyquinoxalin-2-yl)oxy)-2-(((1R,2S)-1-((cyclopropylsulfonyl)carbamoyl)-2-vinylcyclopropyl)carbamoyl)pyrrolidin-1-yl)-3,3-dimethyl-1-oxobutan-2-yl)carbamate], the inhibition constant Ki in assay [1] (setting [11]) is 128 ± 16 nM; in assay [1] (setting [12]), 128 ± 16 nM; in [3] (setting [13]), 7.8 ± 1.1 nM; in assay [3] (setting [14]), 7.8 ± 1.1 nM; in assay [9] (setting [16]) it was 2.2 ± 0.4 nM; in assay [9] (setting [17]), 2.2 ± 0.4 nM. For the same molecule, the “Ki D168A (fold change)” value in assay [2] was found to be 16. The concentration for a half-maximal effect (EC50) is 6.6 nM in assay [4]; 107 nM in [5]; 10 nM in assay [7]; 12 to 38 nM in [8] (setting [15]); 12 nM in assay [8] (setting [18]). In assay [5], the “Replicon EC50 (Fold change) A156T” value is “(16) fold”. Also, the “Replicon EC50 (Fold change) D168A” value in [6] is “(5.8) fold”. Further, the “Replicon EC50 (Fold change) R155K” value in assay [7] is reported as “(1.5) fold”. Further, the “Replicon EC50 (Fold change) D168V” value in assay [8] (Table 9) is “(1.8) fold”. Moreover, the “Ki R155K (fold change)” value in assay [10] worked out at 0.3.

Regarding `C=C[C@@H]1C[C@]1(NC(=O)[C@@H]1C[C@@H](Oc2nc3cc(OC)ccc3nc2Cl)CN1C(=O)[C@@H](NC(=O)OC(C)(C)C)C(C)(C)C)C(=O)NS(=O)(=O)C1(C)CC1` [Compound 10d, tert-Butyl ((S)-1-((2S4R)-4-((3-chloro-7-methoxyquinoxalin-2-yl)oxy)-2-(((1R,2SD)-1-(((1-methylcyclopropyl)sulfonyl)carbamoyl)-1-vinylcyclopropyl)carbamoyl)pyrrolidin-1-yl)-3,3-dimethyl-1-oxobutan-2-yl)carbamate], the Ki is 119 ± 16 nM in assay [1] (setting [11]); 119 ± 16 nM in assay [1] (setting [12]); 6.1 ± 1.1 nM in assay [3] (setting [13]); 6.1 ± 1.1 nM in [3] (setting [14]); 3.8 ± 0.6 nM in assay [9] (setting [16]); 3.8 ± 0.6 nM in assay [9] (setting [17]). The “Ki D168A (fold change)” value in assay [2] amounted to 31. The concentration giving a half-maximal response (EC50) in [4] was 6.3 nM; in assay [5], 100 nM; in [7], 10 nM; in [8] (setting [15]), 12 to 38 nM; in assay [8] (setting [18]), 12 nM. Also, the “Replicon EC50 (Fold change) A156T” value in assay [5] is reported as “(16) fold”. In addition, the “Replicon EC50 (Fold change) D168A” value in [6] was “(4.8) fold”. Also, in assay [7], the “Replicon EC50 (Fold change) R155K” value was “(1.6) fold”. Besides, the “Replicon EC50 (Fold change) D168V” value in assay [8] (Table 9) is recorded as “(1.9) fold”. The “Ki R155K (fold change)” value in [10] was 0.7.

As for `C=C[C@@H]1C[C@]1(NC(=O)[C@@H]1C[C@@H](Oc2nc3cc(OC)ccc3nc2C)CN1C(=O)[C@@H](NC(=O)OC1CCCC1)C(C)(C)C)C(=O)NS(=O)(=O)C1CC1` [Compound 11b, Cyclopentyl ((S)-1-((2S,4R)-2-(((1R,2S)-1-((cyclopropylsulfonyl)carbamoyl)-2-vinylcyclopropyl)carbamoyl)-4-((7-methoxy-3-methylquinoxalin-2-yl)oxy)pyrrolidin-1-yl)-3,3-dimethyl-1-oxobutan-2-yl)carbamate], the Ki in assay [1] (setting [11]) was 144 ± 23 nM; in [1] (setting [12]), 144 ± 23 nM; in assay [3] (setting [13]), 9.2 ± 0.9 nM; in assay [3] (setting [14]), 9.2 ± 0.9 nM; in assay [9] (setting [16]), 9.6 ± 0.9 nM; in assay [9] (setting [17]) it was 9.6 ± 0.9 nM. Moreover, the “Ki D168A (fold change)” value in assay [2] amounted to 16. Further, the EC50 in [4] came out at 10 nM; in [5], 164 nM; in assay [6] it was 101 nM; in assay [7] it was 48 nM; in [8] (setting [15]) it was 150 nM. In assay [5], the “Replicon EC50 (Fold change) A156T” value is reported as “(16) fold”. For the same molecule, the “Replicon EC50 (Fold change) D168A” value in assay [6] is given as “(10) fold”. Moreover, in assay [7], the “Replicon EC50 (Fold change) R155K” value was “(4.8) fold”. Further, the “Replicon EC50 (Fold change) D168V” value in [8] (Table 9) is reported as “(15) fold”. Moreover, the “Ki R155K (fold change)” value in assay [10] is 1.0.

`C=C[C@@H]1C[C@]1(NC(=O)[C@@H]1C[C@@H](Oc2nc3cc(OC)ccc3nc2C(C)C)CN1C(=O)[C@@H](NC(=O)OC1CCCC1)C(C)(C)C)C(=O)NS(=O)(=O)C1(C)CC1` [Compound 12c, Cyclopentyl ((S)-1-((2S,4R)-4-((3-isopropyl-7-methoxyquinoxalin-2-yl)oxy)-2-(((1R,2S)-1-(((1-methylcyclopropyl)sulfonyl)carbamoyl)-2-vinylcyclopropyl)carbamoyl)pyrrolidin-1-yl)-3,3-dimethyl-1-oxobutan-2-yl)carbamate]: the Ki turned out to be 1000 ± 80 nM in [1] (setting [11]); 1000 ± 80 nM in assay [1] (setting [12]); 21 ± 2.6 nM in assay [3] (setting [13]); 21 ± 2.6 nM in assay [3] (setting [14]); 43 ± 11 nM in assay [9] (setting [16]); 43 ± 11 nM in [9] (setting [17]). Moreover, the “Ki D168A (fold change)” value in [2] was determined as 48. Besides, in [10], the “Ki R155K (fold change)” value amounted to 2.0.

On to `C=C[C@@H]1C[C@]1(NC(=O)[C@@H]1C[C@@H](Oc2nc3cc(OC)ccc3nc2C(F)(F)F)CN1C(=O)[C@@H](NC(=O)OC1CCCC1)C(C)(C)C)C(=O)NS(=O)(=O)C1(C)CC1` [Compound 12e, Cyclopentyl ((S)-1-((2S,4R)-4-((7-methoxy-3-(trifluoromethyl)quinoxalin-2-yl)oxy)-2-(((1R,2S)-1-(((1-methylcyclopropyl)sulfonyl)carbamoyl)-2-vinylcyclopropyl)carbamoyl)pyrrolidin-1-yl)-3,3-dimethyl-1-oxobutan-2-yl)carbamate], for which the Ki in [1] (setting [11]) amounted to 516 ± 61 nM; in [1] (setting [12]) it was 516 ± 61 nM; in assay [3] (setting [13]) it was 22 ± 3.4 nM; in assay [3] (setting [14]), 22 ± 3.4 nM; in assay [9] (setting [16]), 22 ± 6.9 nM; in assay [9] (setting [17]) it was 22 ± 6.9 nM. The “Ki D168A (fold change)” value in assay [2] is listed as 24. Besides, in [10], the “Ki R155K (fold change)” value was 1.0.

(Values after patent US11472778B2, “Hepatitis C virus NS3/4A protease inhibitors” (priority 2017, dated 2022).)
